For test [1], the system named is NLRP3 inflammasome (IL-1β production in THP-1 cells). Description: IL-1β TR-FRET Assay (percentage of inhibition at 300 nM, 6 μM or 10 μM). The test is classed as cell-based, human. Particulars: Homo sapiens, LPS priming, ATP activation; for inhibition at 6 µM: THP-1, 6 μM, read-out: IL-1β inhibitory rate at 6 μM (%); for inhibition at 0.3 µM: THP-1, 300 nM, read-out: IL-1β inhibitory rate at 300 nM (%). Summed up:
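Percent inhibition of IL-1β used DMSO wells as 0% and 3 μM MCC-950 wells as full inhibition, with supernatant read by HTRF. Beforehand, IFN-γ-differentiated (25 ng/mL, 24 h), LPS-primed (50 ng/mL, 24 h) THP-1 cells received compound 30 min before inflammasome activation by 20 mM ATP for 2 h.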
(In general: Time-resolved FRET reads energy transfer from a long-lived donor to a nearby acceptor.)

Test [2] concerns TNF-α (NF-κB pathway, THP-1 cells). Put plainly: TNF-α Assay (IC50). As to conditions: Homo sapiens, 600 ng/mL LPS, 3 hours. Type of test: cell-based, human. The method in brief:
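Supernatant TNF-α quantified by ELISA after 3 h stimulation with 600 ng/mL LPS at 37 °C, following 30 min compound preincubation. Cells: IFN-differentiated (25 ng/mL, 24 h) THP-1 macrophages, 40,000/well, serum-free. IC50 by sigmoidal fit of % inhibition, with TPCA-1 as 100% control.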

Molecules are shown by their SMILES. pIC50: −log10 of the molar value.

Consider `COCc1nc2nn(-c3c(F)cc(C4CC4)cc3CC(F)F)cc2c(=O)[nH]1` [Example 322, 2-[4-cyclopropyl-2-(2,2-difluoroethyl)-6-fluorophenyl]-6-(methoxymethyl)-2,5-dihydro-4H-pyrazolo[3,4-d]pyrimidin-4-one], for which the inhibition at 6 µM in test [1] came to 104%. The compound further had a pIC50 in test [2] of under 4.52.

`CCOc1nc2nn(-c3c(C)cc(C4(F)CC4)cc3F)cc2c(=O)[nH]1` [Example 182, 6-ethoxy-2-[2-fluoro-4-(1-fluorocyclopropyl)-6-methylphenyl]-2,5-dihydro-4H-pyrazolo[3,4-d]pyrimidin-4-one]: in test [1], the inhibition at 0.3 µM is 102%. In test [2], the pIC50 is under 4.52.

`CCOc1nc2nn(-c3c(C)cc(C4CC4)cc3Br)cc2c(=O)[nH]1` [Example 151, 2-(2-bromo-4-cyclopropyl-6-methylphenyl)-6-ethoxy-2,5-dihydro-4H-pyrazolo[3,4-d]pyrimidin-4-one]: the inhibition at 0.3 µM in test [1] turned out to be 98%. For the same compound, the negative-log IC50 (pIC50) in test [2] was under 4.52.

Consider `CCOc1nc2nn(-c3c(C)cc(C4CC4(F)F)cc3F)cc2c(=O)[nH]1` (racemic) [Example 112, 2-[4-(2,2-difluorocyclopropyl)-2-fluoro-6-methylphenyl]-6-ethoxy-2,5-dihydro-4H-pyrazolo[3,4-d]pyrimidin-4-one], for which the inhibition at 0.3 µM in test [1] amounted to 98%. Moreover, in test [2], the pIC50 is under 4.52.

As to `CCOc1nc2nn(-c3c(C)ccc(C)c3F)cc2c(=O)[nH]1` [Example 101, 6-ethoxy-2-(2-fluoro-3,6-dimethylphenyl)-2,5-dihydro-4H-pyrazolo[3,4-d]pyrimidin-4-one], in test [1] (THP-1, 10 μM, read-out: IL-1β inhibitory rate at 10 μM (%)), the inhibition at 10 µM turned out to be 95%. In test [2], the pIC50 was under 4.52.

Take `Cc1cc(C)c(-n2cc3c(=O)[nH]c(C(C)C)nc3n2)c(O)c1` [Example 10, 2-(2-hydroxy-4,6-dimethylphenyl)-6-(propan-2-yl)-2,5-dihydro-4H-pyrazolo[3,4-d]pyrimidin-4-one]: in test [1], the inhibition at 0.3 µM turned out to be 98%. In addition, the pIC50 in test [2] was under 4.52.

Consider `COc1nc2nn(-c3c(C)cc(C4(F)CC4)cc3C)cc2c(=O)[nH]1` [Example 235, 2-[4-(1-fluorocyclopropyl)-2,6-dimethylphenyl]-6-methoxy-2,5-dihydro-4H-pyrazolo[3,4-d]pyrimidin-4-one], for which, in test [1], the inhibition at 6 µM was determined as 105%. In test [2], this compound gave a negative-log IC50 (pIC50) of under 4.52.

For `Cc1cc(C)c(-n2cc3c(=O)[nH]c(OCC(C)(F)F)nc3n2)c(O)c1` [Example 42, 6-(2,2-difluoropropoxy)-2-(2-hydroxy-4,6-dimethylphenyl)-2,5-dihydro-4H-pyrazolo[3,4-d]pyrimidin-4-one], the inhibition at 0.3 µM in test [1] was 97%. The compound also showed a pIC50 in test [2] of under 4.52.

`Cc1cc(C2CC2)cc(C)c1-n1cc2c(=O)[nH]c(O[C@@H]3CCOC3)nc2n1` [Example 293, 2-(4-cyclopropyl-2,6-dimethylphenyl)-6-{[(3R)-oxolan-3-yl]oxy}-2,5-dihydro-4H-pyrazolo[3,4-d]pyrimidin-4-one]: in test [1], the inhibition at 6 µM turned out to be 99%. In test [2], this compound showed a pIC50 of under 4.52.

For `COCc1nc2nn(-c3c(C)cc(C)cc3O)cc2c(=O)[nH]1` [Example 28, 2-(2-hydroxy-4,6-dimethylphenyl)-6-(methoxymethyl)-2,5-dihydro-4H-pyrazolo[3,4-d]pyrimidin-4-one], the inhibition at 0.3 µM in test [1] came out at 101%. Further, the pIC50 in test [2] is under 4.52.

Consider `CCOc1nc2nn(-c3c(C)cc(C)cc3C)cc2c(=O)[nH]1` [Example 106, 6-ethoxy-2-(2,4,6-trimethylphenyl)-2,5-dihydro-4H-pyrazolo[3,4-d]pyrimidin-4-one], for which, in test [1], the inhibition at 0.3 µM worked out at 97%. Besides, the pIC50 in test [2] is under 4.52.

As for `Cc1cc(C)c(-n2cc3c(=O)[nH]c(OCCCCN(C)C)nc3n2)c(O)c1` [Example 129, 6-[4-(dimethylamino)butoxy]-2-(2-hydroxy-4,6-dimethylphenyl)-2,5-dihydro-4H-pyrazolo[3,4-d]pyrimidin-4-one], the inhibition at 0.3 µM in test [1] stood at 98%. The same compound showed a pIC50 in test [2] of under 4.52.

On to `CCOc1nc2nn(-c3c(F)cc(OC(F)F)cc3Br)cc2c(=O)[nH]1` [Example 119, 2-[2-bromo-4-(difluoromethoxy)-6-fluorophenyl]-6-ethoxy-2,5-dihydro-4H-pyrazolo[3,4-d]pyrimidin-4-one], for which the inhibition at 0.3 µM in test [1] turned out to be 101%. This compound showed a pIC50 in test [2] of under 4.52.

Take `CCOc1nc2nn(-c3c(C)cc(C)c(F)c3F)cc2c(=O)[nH]1` [Example 96, 2-(2,3-difluoro-4,6-dimethylphenyl)-6-ethoxy-2,5-dihydro-4H-pyrazolo[3,4-d]pyrimidin-4-one]: in test [1], the inhibition at 0.3 µM worked out at 55%. Moreover, the pIC50 in test [2] was under 4.52.

`CCOc1nc2nn(-c3ccc(C4CC4)cc3O)c(C)c2c(=O)[nH]1` [Example 48, 2-(4-cyclopropyl-2-hydroxyphenyl)-6-ethoxy-3-methyl-2,5-dihydro-4H-pyrazolo[3,4-d]pyrimidin-4-one]: the inhibition at 0.3 µM in test [1] amounted to 100%. Further, the pIC50 in test [2] is under 4.52.

For `COc1ccc(-c2nc3nn(-c4c(C)cc(C)cc4O)cc3c(=O)[nH]2)nc1` [Example 21, 2-(2-hydroxy-4,6-dimethylphenyl)-6-(5-methoxypyridin-2-yl)-2,5-dihydro-4H-pyrazolo[3,4-d]pyrimidin-4-one], the inhibition at 0.3 µM in test [1] was found to be 98%. The pIC50 in test [2] is under 4.52.

As to `Cc1cc(C2CC2)cc(C)c1-n1cc2c(=O)[nH]c(C3(F)CC3)nc2n1` [Example 190, 2-(4-cyclopropyl-2,6-dimethylphenyl)-6-(1-fluorocyclopropyl)-2,5-dihydro-4H-pyrazolo[3,4-d]pyrimidin-4-one], the inhibition at 0.3 µM in test [1] was 97%. In test [2], this compound gave a pIC50 of under 4.52.

For the compound `COCCOc1nc2nn(-c3c(C)cc(C4(F)CC4)cc3C)cc2c(=O)[nH]1` [Example 246, 2-[4-(1-fluorocyclopropyl)-2,6-dimethylphenyl]-6-(2-methoxyethoxy)-2,5-dihydro-4H-pyrazolo[3,4-d]pyrimidin-4-one], in test [1], the inhibition at 6 µM worked out at 101%. For the same compound, the pIC50 in test [2] was under 4.52.

Regarding `CCOc1nc2nn(-c3ccc(C(F)(F)F)cc3O)c(C)c2c(=O)[nH]1` [Example 59, 6-ethoxy-2-[2-hydroxy-4-(trifluoromethyl)phenyl]-3-methyl-2,5-dihydro-4H-pyrazolo[3,4-d]pyrimidin-4-one], in test [1], the inhibition at 0.3 µM is 98%. The compound further gave a pIC50 in test [2] of under 4.52.

Take `Cc1cc(C)c(-n2cc3c(=O)[nH]c(-c4cnccn4)nc3n2)c(O)c1` [Example 61, 2-(2-hydroxy-4,6-dimethylphenyl)-6-(pyrazin-2-yl)-2,5-dihydro-4H-pyrazolo[3,4-d]pyrimidin-4-one]: the inhibition at 0.3 µM in test [1] was determined as 100%. In test [2], this compound had a pIC50 of under 4.52.

With `COCCc1nc2nn(-c3c(F)cc(C4CC4)cc3C(F)F)cc2c(=O)[nH]1` [Example 300, 2-[4-cyclopropyl-2-(difluoromethyl)-6-fluorophenyl]-6-(2-methoxyethyl)-2,5-dihydro-4H-pyrazolo[3,4-d]pyrimidin-4-one], the inhibition at 6 µM in test [1] worked out at 99%. Further, the pIC50 in test [2] was under 4.52.

Take `CCOc1nc2nn(-c3c(O)cc(C)cc3C3CC3)cc2c(=O)[nH]1` [Example 11, 2-(2-cyclopropyl-6-hydroxy-4-methylphenyl)-6-ethoxy-2,5-dihydro-4H-pyrazolo[3,4-d]pyrimidin-4-one]: in test [1], the inhibition at 0.3 µM was 99%. Also, the pIC50 in test [2] was under 4.52.

As to `CO[C@@H]1C[C@H]1c1nc2nn(-c3c(C)cc(C4CC4)cc3C)cc2c(=O)[nH]1` (racemic) [Example 265, racemic mixture of 2-(4-cyclopropyl-2,6-dimethylphenyl)-6-[(1R,2S)-2-methoxycyclopropyl]-2,5-dihydro-4H-pyrazolo[3,4-d]pyrimidin-4-one and 2-(4-cyclopropyl-2,6-dimethylphenyl)-6-[(1S,2R)-2-methoxycyclopropyl]-2,5-dihydro-4H-pyrazolo[3,4-d]pyrimidin-4-one], the inhibition at 6 µM in test [1] turned out to be 95%. The pIC50 in test [2] was under 4.52.

Turning to `CCOc1nc2nn(-c3c(C)cc(OC)cc3F)cc2c(=O)[nH]1` [Example 121, 6-ethoxy-2-(2-fluoro-4-methoxy-6-methylphenyl)-2,5-dihydro-4H-pyrazolo[3,4-d]pyrimidin-4-one], in test [1], the inhibition at 0.3 µM stood at 97%. In test [2], the pIC50 was under 4.52.

As to `CCOc1nc2nn(-c3ccc(C4CC4)cc3F)c(C)c2c(=O)[nH]1` [Example 111, 2-(4-cyclopropyl-2-fluorophenyl)-6-ethoxy-3-methyl-2,5-dihydro-4H-pyrazolo[3,4-d]pyrimidin-4-one], the inhibition at 0.3 µM in test [1] stood at 95%. In test [2], this compound had a negative logarithm of the IC50 (pIC50) of under 4.52.

Turning to `Cc1cc(C)c(-n2cc3c(=O)[nH]c(C4CN(C)CCO4)nc3n2)c(O)c1` (stereo not drawn) [Example 88, 2-(2-hydroxy-4,6-dimethylphenyl)-6-(4-methylmorpholin-2-yl)-2,5-dihydro-4H-pyrazolo[3,4-d]pyrimidin-4-one], in test [1], the inhibition at 0.3 µM was found to be 86%. Further, the pIC50 in test [2] was under 4.52.

Regarding `CCn1ncc(-c2nc3nn(-c4c(C)cc(C5CC5)cc4C)cc3c(=O)[nH]2)n1` [Example 257, 2-(4-cyclopropyl-2,6-dimethylphenyl)-6-(2-ethyl-2H-1,2,3-triazol-4-yl)-2,5-dihydro-4H-pyrazolo[3,4-d]pyrimidin-4-one], the inhibition at 6 µM in test [1] was 99%. The pIC50 in test [2] is under 4.52.

Broadly, the pIC50 is the negative decadic logarithm of the IC50, by convention in mol/L. High values mean a small IC50, low ones a large IC50.

For the origin of these results see patent US20260297092A1, “PYRAZOLOPYRIMIDINE DERIVATIVES AS INHIBITORS OF NLRP3” (Takeda Pharmaceutical Company Limited, priority 2023, published 2026).
